From patent publication US10602743B2, “Method of inducing drought/salt tolerance using Bacillus megaterium” (Marrone Bio Innovations, Inc., priority 2012, dated 2020) come the findings set out here.

Common to all, as to assay type: cell-based
For experiment [1], the system named is Bacillus megaterium H491. Briefly: Antibiotic susceptibility, antibiotic disks on Muller-Hinton medium. On the set-up: key: +++ (very); ++ (somewhat); + (marginally); resistance is indicated by (−). The settings on record: antibiotic disk, 48-hour incubation at 25° C. The method, then: (§1) Antibiotic susceptibility of Bacillus megaterium strains H491, J142 and M018 was tested using antibiotic disks on Muller-Hinton medium as described in PML Microbiological's technical data sheet #535.

Experiment [2] concerns Bacillus megaterium J142. The experiment is described as above. Further details: key: +++ (very); ++ (somewhat); + (marginally); resistance is indicated by (−). The settings on record: antibiotic disk, 48-hour incubation at 25° C. The protocol: as §1
Experiment [3] concerns Bacillus megaterium M018. Described as above. On the set-up: key: +++ (very); ++ (somewhat); + (marginally); resistance is indicated by (−). Particulars: antibiotic disk, 48-hour incubation at 25° C. The method, then:
as §1

In experiment [4] the test system is Bacillus megaterium strain H491. The experiment is described as follows: Chemical sensitivity, Biolog Phenotypic Microarray. The settings on record: Biolog Phenotypic Microarray; for Resistance of H491 observed in wells containing compound: at a maximum concentration of 4 ug; for H491 susceptible to compound: 25° C.

As for `CC1(C)S[C@@H]2[C@H](NC(=O)[C@H](N)c3ccccc3)C(=O)N2[C@H]1C(=O)O` [Ampicillin], in experiment [1], the “Susceptibility degree of H491” value is on record as “+++”. Besides, the “Susceptibility degree of J142” value in experiment [2] is given as “+++”. Further, the “Susceptibility degree of M018” value in experiment [3] was “++”. In addition, the “Resistance of H491 observed in wells containing compound” value (from here on “Resistance of H491 observed”) in experiment [4] is “Resistance”.

Consider `CO/N=C(\C(=O)N[C@@H]1C(=O)N2C(C(=O)O)=C(COC(N)=O)CS[C@H]12)c1ccco1` [Cefuroxime], for which the “Susceptibility degree of H491” value in experiment [1] is “+++”. The “Susceptibility degree of J142” value in experiment [2] is listed as “+++”. Further, in experiment [3], the “Susceptibility degree of M018” value is “+++”. In addition, in experiment [4], the “H491 susceptible to compound” value is recorded as “susceptible”.

As to `O=C(N[C@H](CO)[C@H](O)c1ccc([N+](=O)[O-])cc1)C(Cl)Cl` [Chloramphenicol], the “Susceptibility degree of H491” value in experiment [1] is listed as “+++”. Besides, the “Susceptibility degree of J142” value in experiment [2] was “+++”. Besides, the “Susceptibility degree of M018” value in experiment [3] is “++”.

Consider `O=C(O)c1cn(C2CC2)c2cc(N3CCNCC3)c(F)cc2c1=O` [Ciprofloxacin], for which the “Susceptibility degree of H491” value in experiment [1] was “+++”. Besides, the “Susceptibility degree of J142” value in experiment [2] is “+++”. Further, in experiment [3], the “Susceptibility degree of M018” value is given as “+++”.

For the compound `CC[C@H]1OC(=O)[C@H](C)[C@@H](O[C@H]2C[C@@](C)(OC)[C@@H](O)[C@H](C)O2)[C@H](C)[C@@H](O[C@@H]2O[C@H](C)C[C@H](N(C)C)[C@H]2O)[C@](C)(O)C[C@@H](C)C(=O)[C@H](C)[C@@H](O)[C@]1(C)O` [Erythromycin], the “Susceptibility degree of H491” value in experiment [1] was “+++”. Also, the “Susceptibility degree of J142” value in experiment [2] is on record as “+++”. Besides, in experiment [3], the “Susceptibility degree of M018” value is reported as “+++”. Also, the “H491 susceptible to compound” value in experiment [4] was “susceptible”.

On to `C[C@@H](O)[C@H]1C(=O)N2C(C(=O)O)=C(SCCN=CN)C[C@H]12` [Imipenem], for which the “Susceptibility degree of H491” value in experiment [1] was “+++”. Besides, the “Susceptibility degree of J142” value in experiment [2] was “+++”. The “Susceptibility degree of M018” value in experiment [3] is given as “+++”.

Take `NC[C@H]1O[C@H](O[C@H]2[C@H](O)[C@@H](O[C@H]3O[C@H](CO)[C@@H](O)[C@H](N)[C@H]3O)[C@H](N)C[C@@H]2N)[C@H](O)[C@@H](O)[C@@H]1O` [Kanamycin]: in experiment [1], the “Susceptibility degree of H491” value is listed as “+++”. Further, the “Susceptibility degree of J142” value in experiment [2] is given as “+++”. In experiment [3], the “Susceptibility degree of M018” value is “+++”.

Turning to `CN(C)[C@@H]1C(O)=C(C(N)=O)C(=O)[C@@]2(O)C(O)=C3C(=O)c4c(O)cccc4[C@@](C)(O)[C@H]3[C@H](O)[C@@H]12` [Oxytetracycline], the “Susceptibility degree of H491” value in experiment [1] was “+++”. Besides, in experiment [2], the “Susceptibility degree of J142” value is on record as “+++”. Besides, in experiment [3], the “Susceptibility degree of M018” value is listed as “+++”.

Regarding `CCN1CCN(C(=O)N[C@@H](C(=O)N[C@@H]2C(=O)N3[C@@H]2SC(C)(C)[C@@H]3C(=O)O)c2ccccc2)C(=O)C1=O` [Piperacillin], in experiment [1], the “Susceptibility degree of H491” value is on record as “+++”. Moreover, the “Susceptibility degree of J142” value in experiment [2] is “+”. In addition, the “Susceptibility degree of M018” value in experiment [3] is recorded as “++”.

Regarding `CN(C)[C@@H]1C(O)=C(C(N)=O)C(=O)[C@@]2(O)C(O)=C3C(=O)c4c(O)cccc4[C@@](C)(O)[C@H]3C[C@@H]12` [Tetracycline], the “Susceptibility degree of H491” value in experiment [1] was “+++”. For the same compound, the “Susceptibility degree of J142” value in experiment [2] is “+++”. Further, in experiment [3], the “Susceptibility degree of M018” value was “+++”.

On to `NC[C@H]1O[C@H](O[C@H]2[C@H](O)[C@@H](O[C@H]3O[C@H](CO)[C@@H](O)[C@H](N)[C@H]3O)[C@H](N)C[C@@H]2N)[C@H](N)C[C@@H]1O` [Tobramycin], for which the “H491 susceptible to compound” value in experiment [4] is “susceptible”.

Consider `Cc1ccc(N(SC(F)(Cl)Cl)S(=O)(=O)N(C)C)cc1` [Tolylfluanid], for which the “H491 susceptible to compound” value in experiment [4] was “susceptible”.

As for `CN1CCN(CCCN2c3ccccc3Sc3ccc(C(F)(F)F)cc32)CC1` [Trifluoperazine], in experiment [4], the “H491 susceptible to compound” value is recorded as “susceptible”.

With `O=c1[nH]c(=O)n([C@H]2C[C@H](O)[C@@H](CO)O2)cc1C(F)(F)F` [Trifluorothymidine], the “H491 susceptible to compound” value in experiment [4] is “susceptible”.

As to `CO[C@H]1C[C@H](O[C@H]2[C@H](C)[C@@H](O[C@@H]3O[C@H](C)C[C@H](N(C)C)[C@H]3OC(C)=O)[C@@H](C)C[C@@]3(CO3)C(=O)[C@H](C)[C@@H](OC(C)=O)[C@@H](C)[C@@H](C)OC(=O)[C@@H]2C)O[C@@H](C)[C@@H]1OC(C)=O` [Troleandomycin], the “H491 susceptible to compound” value in experiment [4] is “susceptible”.

For the compound `CC[C@H]1OC(=O)C[C@@H](O)[C@H](C)[C@@H](O[C@@H]2O[C@H](C)[C@@H](O[C@H]3C[C@@](C)(O)[C@@H](O)[C@H](C)O3)[C@H](N(C)C)[C@H]2O)[C@@H](CC=O)C[C@@H](C)C(=O)/C=C/C(C)=C/[C@@H]1CO[C@@H]1O[C@H](C)[C@@H](O)[C@@H](OC)[C@H]1OC` [Tylosin], the “H491 susceptible to compound” value in experiment [4] is given as “susceptible”.

On to `CN[C@H](CC(C)C)C(=O)N[C@H]1C(=O)N[C@@H](CC(N)=O)C(=O)N[C@H]2C(=O)N[C@H]3C(=O)N[C@H](C(=O)N[C@H](C(=O)O)c4cc(O)cc(O)c4-c4cc3ccc4O)[C@H](O)c3ccc(c(Cl)c3)Oc3cc2cc(c3O[C@@H]2O[C@H](CO)[C@@H](O)[C@H](O)[C@H]2O[C@H]2C[C@](C)(N)[C@H](O)[C@H](C)O2)Oc2ccc(cc2Cl)[C@H]1O` [Vancomycin], for which the “H491 susceptible to compound” value in experiment [4] is given as “susceptible”.

Consider `NCC[C@H](O)C(=O)N[C@@H]1C[C@H](N)[C@@H](O[C@H]2O[C@H](CN)[C@@H](O)[C@H](O)[C@H]2O)[C@H](O)[C@H]1O[C@H]1O[C@H](CO)[C@@H](O)[C@H](N)[C@H]1O` [amikacin], for which the “Resistance of H491 observed” value in experiment [4] was “Resistance”.

Regarding `CCn1cc(C(=O)O)c(=O)c2cc(F)c(N3CCNC(C)C3)c(F)c21` (stereo not drawn) [lomefloxacin], the “Resistance of H491 observed” value in experiment [4] is given as “Resistance”.

Regarding `CCn1cc(C(=O)O)c(=O)c2cc3c(cc21)OCO3` [oxolinic acid], the “Resistance of H491 observed” value in experiment [4] was “Resistance”.

As for `CN[C@@H]1[C@H](O)[C@H](NC)[C@H]2O[C@@]3(O)C(=O)C[C@@H](C)O[C@H]3O[C@@H]2[C@H]1O` [spectinomycin], the “Resistance of H491 observed” value in experiment [4] was “Resistance”.

In the case of `Cc1cc(C)nc(NS(=O)(=O)c2ccc(N)cc2)n1` [sulfamethazine], in experiment [4], the “Resistance of H491 observed” value is “Resistance”.

Regarding `O=C(O)/C=C/c1ccccc1` [trans-Cinnamic acid], in experiment [4], the “H491 susceptible to compound” value was “susceptible”.

Take Acriflavine: the “H491 susceptible to compound” value in experiment [4] is listed as “susceptible”.

Capreomycin: the “H491 susceptible to compound” value in experiment [4] is listed as “susceptible”.

With Neomycin, in experiment [4], the “H491 susceptible to compound” value is given as “susceptible”.

Regarding Niaproof, the “H491 susceptible to compound” value in experiment [4] is “susceptible”.

Regarding Penicillin, the “Susceptibility degree of H491” value in experiment [1] is listed as “+++”. The “Susceptibility degree of J142” value in experiment [2] is “−”. In addition, the “Susceptibility degree of M018” value in experiment [3] is “++”.

Regarding Penimepicycline, the “H491 susceptible to compound” value in experiment [4] is “susceptible”.

Take Phleomycin: the “H491 susceptible to compound” value in experiment [4] is “susceptible”.

Consider Poly-L-lysine, for which the “H491 susceptible to compound” value in experiment [4] is recorded as “susceptible”.

As to Polymyxin B, in experiment [4], the “H491 susceptible to compound” value is listed as “susceptible” and the “Resistance of H491 observed” value is given as “Resistance”.

On to Protamine sulfate, for which the “H491 susceptible to compound” value in experiment [4] was “susceptible”.

Turning to Sodium metavanadate, the “H491 susceptible to compound” value in experiment [4] is listed as “susceptible”.

On to Spiramycin, for which, in experiment [4], the “H491 susceptible to compound” value was “susceptible”.

As to bleomycin, the “Resistance of H491 observed” value in experiment [4] is “Resistance”.

As for colistin, the “Resistance of H491 observed” value in experiment [4] is reported as “Resistance”.
